Values quoted from earlier work, collected in patent publication US20020072508A1, “Anti-depressant, stress suppressor and mood improver” (LIPOGEN LTD., priority 2000, published 2002).

Tested on: withdrawal symptoms associated with addiction (cigarettes, alcohol, narcotics)

For phosphatidic acid, the “withdrawal symptoms associated with addiction” value is given as “alleviate withdrawal symptoms”.
